Data from patent publication US20210121456A1, “USE OF METHYLNALTREXONE TO ATTENUATE TUMOR PROGRESSION” (Salix Pharmaceuticals, Inc., priority 2014, published 2021).

Tested on: patients with advanced cancers (and non-cancer advanced illness) and opioid-induced constipation
Assay: Pooled post-hoc analysis of Study 1 and Study 2: deaths and overall survival
Type: in vivo, human
Method: Routine adverse event (AE) evaluations described in Example 3 were analyzed. AEs of tumor progression in specific cancers and survival analysis of the placebo and methylnaltrexone-treated cohorts in the clinical studies were tabulated. Both studies were randomized, placebo-controlled trials that involved a 2-week treatment period followed by a 2-week follow-up period. The enrolled subjects were advanced illness (incurable cancer or other end-stage disease) subjects with OIC who were receiving stable doses of laxatives and opioid analgesics. In the context of the study, a stable dose of opioid analgesics was defined as no reduction in the dose of opioid analgesic of ≥50% for at least three days before the first dose of MNTX. A stable dose of laxatives was defined as having a standing laxative order (and not PRN, or as-needed) for at least three days before the first dose of MNTX. A diagnosis of constipation was provided if the subject had (a) fewer than 3 bowel movements during the previous week by history and no clinically notable laxation in the 24 hours before the first dose of MNTX, or (b) no clinical notable laxation in the 48 hours before the first dose of MNTX. In Study 1 (Example 1), subjects received subcutaneous MNTX 0.15 mg/kg or placebo (PBO) every other day (QOD), and in Study 2 (Example 2) subjects received subcutaneous MNTX (8 mg or 12 mg based on body weight 38 to <62 kg or ≥62 kg, respectively) or placebo administered QOD. The 12 mg fixed dose was designed to correspond to the 0.15 mg/kg weight-based dose. Rescue-laxatives, enemas or manual disimpactions were not administered within 4 hours before or after each dose of MNTX. […] For statistical significance testing, the Fisher's exact test was used (p<0.05).
Subsequent to the initial pooled analysis in Example 3, the data from Study 1 and Study 2 was re-analyzed for overall survival (OS) in a post-hoc analysis. Overall survival (OS) was defined as the time interval from the treatment initiation to the date of death or the date of last follow up, whichever occurred first. […] In Study 2, 151 of the enrolled 229 patients were diagnosed with advanced cancers. […] FIG. 12 provides a schematic of the subjects with advanced cancers from the pooled studies that were analyzed in the subsequent analysis. Table 3 provides the patient characteristics from the subsequent pooled analysis of the two studies. Table 4 provides a distribution of the type of cancer diagnosed in the subjects analyzed for survival.
Table 7 lists the number of deaths and survivors in both the placebo and the methylnaltrexone-treated groups for subjects diagnosed with lung, breast, prostate, pancreatic and colon cancer. The groups are further categorized into methylnaltrexone responders and methylnaltrexone non-responders alone or in combination with the placebo group. The analysis included the results from the double-blind and open label phases of the studies. When the group of MNTX-treated subjects across both studies was examined, there was a significant difference in the percentage of subject deaths between the MNTX-responsive group and the MNTX non-responsive group, with the number of survivors in the MNTX-responsive group exceeding the number of survivors in the MNTX non-responsive group. […] For the analysis in Table 7, a subject with laxation within 0-4 hours after two of the first four doses of MNTX was considered a responder. The data in Table 6 may vary slightly from that in Table 4 based on how the subjects were coded as cancer patients during analysis of the data. […]
For the analysis carried out in this Example and in Example 3, a subject with laxation occurring from 0-4 hours after two of the first four doses of MNTX was considered a MNTX responder or responsive subject. Data for placebo patients who elected to participate in the open-label MNTX treatment phase was collected from the first 4 doses of open-label treatment. […]

[1] = Excluding crossover to MNTX (MNTX 117, placebo 61)
[2] = Patients on placebo (crossover to MNTX 51, placebo 61)
[3] = Table 6, Non-Responders (versus Responders < 4hr)
[4] = Table 6, Non-Responders (versus Responders < 8hr)
[5] = Table 6, Non-Responders (versus Responders < 12hr)
[6] = Table 6, Non-Responders (versus Responders < 24hr)
[7] = Table 7, MNTX All, Total of five cancers
[8] = Table 7, MNTX Non-Responders, Breast
[9] = Table 7, MNTX Non-Responders, Colon
[10] = Table 7, MNTX Non-Responders, Lung
[11] = Table 7, MNTX Non-Responders, Pancreas
[12] = Table 7, MNTX Non-Responders, Prostate
[13] = Table 7, MNTX Non-Responders, Total of five cancers
[14] = Table 7, MNTX Responders, Breast
[15] = Table 7, MNTX Responders, Colon
[16] = Table 7, MNTX Responders, Pancreas
[17] = Table 7, MNTX Responders, Prostate
[18] = Table 7, MNTX Responders, Total of five cancers

C[N@+]1(CC2CC2)CC[C@]23c4c5ccc(O)c4O[C@H]2C(=O)CC[C@@]3(O)[C@H]1C5.[Br-] [MNTX, (R)—N-(cyclopropylmethyl) noroxymorphone methobromide]
overall survival MNTX vs. placebo (134 patients with advanced illness other than cancer, p=0.88): no difference
Hazard Ratio, Treatment: MNTX vs. placebo (overall survival, Cox regression) (All patients (MNTX 117, placebo 112)): 0.70
Hazard Ratio, Response vs. no response [1]: 0.32
Hazard Ratio, Treatment: MNTX vs. placebo [1]: 0.32
Deaths (number) (MNTX All Patients, Cancer): 45
Deaths (number) (MNTX All Patients, Non-Cancer): 11
Deaths (%) (MNTX All Patients, Totals): (31.3%)
Deaths (number) (MNTX All Patients, Totals): 56
Deaths (number) (MNTX Non-Responders, Cancer): 23
Deaths (number) (MNTX Non-Responders, Non-Cancer): 5
Deaths (%) (MNTX Non-Responders, Totals): (39.4%)
Deaths (number) (MNTX Non-Responders, Totals): 28
Deaths (number) (MNTX Responders, Cancer): 22
Deaths (number) (MNTX Responders, Non-Cancer): 6
Deaths (%) (MNTX Responders, Totals): (25.9%)
Deaths (number) (MNTX Responders, Totals): 28
median overall survival (OS) (MNTX non-responsive group (45 subjects)): 58 days
overall survival (OS) (MNTX-responsive group, analysis before the updated analysis (FIG. 9)): 121 days
Hazard Ratio, Response vs. no response [2]: 0.64
Hazard Ratio, Treatment: MNTX vs. placebo [2]: 0.15
% Deaths [3]: 50.0%
Deaths [3]: 22
Survivors [3]: 22
% Deaths [4]: 53.8%
Deaths [4]: 21
Survivors [4]: 18
% Deaths [5]: 50.0%
Deaths [5]: 18
Survivors [5]: 18
% Deaths [6]: 48.4%
Deaths [6]: 15
Survivors [6]: 16
% Deaths (Table 6, Responders < 4hr): 31.5%
Deaths (Table 6, Responders < 4hr): 23
Survivors (Table 6, Responders < 4hr): 50
% Deaths (Table 6, Responders < 8hr): 30.8%
Deaths (Table 6, Responders < 8hr): 24
Survivors (Table 6, Responders < 8hr): 54
% Deaths (Table 6, Responders < 12hr): 33.3%
Deaths (Table 6, Responders < 12hr): 27
Survivors (Table 6, Responders < 12hr): 54
% Deaths (Table 6, Responders < 24hr): 34.9%
Deaths (Table 6, Responders < 24hr): 30
Survivors (Table 6, Responders < 24hr): 56
Deaths (Table 7, MNTX All, Breast): 3
Deaths (%) (Table 7, MNTX All, Breast): 21.4%
Survivors (Table 7, MNTX All, Breast): 11
Deaths (Table 7, MNTX All, Colon): 1
Deaths (%) (Table 7, MNTX All, Colon): 25.0%
Survivors (Table 7, MNTX All, Colon): 3
Deaths (Table 7, MNTX All, Lung): 14
Deaths (%) (Table 7, MNTX All, Lung): 45.2%
Survivors (Table 7, MNTX All, Lung): 17
Deaths (Table 7, MNTX All, Pancreas): 3
Deaths (%) (Table 7, MNTX All, Pancreas): 33.3%
Survivors (Table 7, MNTX All, Pancreas): 6
Deaths (Table 7, MNTX All, Prostate): 5
Deaths (%) (Table 7, MNTX All, Prostate): 41.7%
Survivors (Table 7, MNTX All, Prostate): 7
Deaths [7]: 26
Deaths (%) [7]: 37.7%
Survivors [7]: 43
Deaths [8]: 2
Deaths (%) [8]: 50.0%
Survivors [8]: 2
Deaths [9]: 0
Deaths (%) [9]: 0.0%
Survivors [9]: 1
Deaths [10]: 8
Deaths (%) [10]: 47.1%
Survivors [10]: 9
Deaths [11]: 3
Deaths (%) [11]: 75.0%
Survivors [11]: 1
Deaths [12]: 3
Deaths (%) [12]: 60.0%
Survivors [12]: 2
Deaths [13]: 16
Deaths (%) [13]: 51.6%
Survivors [13]: 15
Deaths (Table 7, MNTX Responders (laxation within 0-4 hours after two of the first four doses), Lung): 6
Deaths [14]: 1
Deaths (%) [14]: 10.0%
Survivors [14]: 9
Deaths [15]: 1
Deaths (%) [15]: 33.3%
Survivors [15]: 2
Deaths (%) (Table 7, MNTX Responders, Lung): 42.9%
Survivors (Table 7, MNTX Responders, Lung): 8
Deaths [16]: 0
Deaths (%) [16]: 0.0%
Survivors [16]: 5
Deaths [17]: 2
Deaths (%) [17]: 28.6%
Survivors [17]: 5
Deaths [18]: 10
Deaths (%) [18]: 26.3%
Survivors [18]: 28
median overall survival (OS) (cancer patients treated with MNTX (n=117)): 76 days
median overall survival (OS) (cancer patients with response to MNTX (n=72)): 118 days
median OS (lung cancer patients (n=15) with response to MNTX): 118 days
median OS (lung cancer, 32 patients treated with MNTX): 118 days
Deaths (pancreatic cancer, 4 patients with response to MNTX): no death
median OS (pancreatic cancer, 8 patients treated with MNTX): 76 days
survival extended after administration (pancreatic cancer, methylnaltrexone-responsive group, initial analysis (FIG. 12)): ~100 days
median OS (placebo patients (n=23) with response to MNTX during open-label treatment): 74 days
median overall survival (placebo patients (n=56) who crossed over to MNTX): 75 days
